In patent US4025644A, “Tyrosine derivatives and use” (Daiichi Seiyaku Co., Ltd., priority 1974, dated 1977):
Peptide text beside a SMILES is read from it. * marks the point of attachment. Bz = O=C(c1ccccc1)*

How the values were obtained:
[1] = Acute toxicity, oral, mice; settings: in vivo, mouse p.o.
[2] = tested on: acetic acid ulcers in rats; experiment: Anti-ulcerous effect on acetic acid-induced experimental gastric ulcers in rats (oral for 13 days from the day after ulceration), Table I; type: in vivo, Donryu-strain male rats; settings: relative to glutamine
Description: The anti-ulcerous effects of the object compounds of this invention have been confirmed in tests on ulcers in rats. The ulcers were produced according to the method of K. Takagi, S. Okabe and R. Saziki, by the effect of acetic acid on the digestive organs (Japanese Journal of Pharmacology vol. 19 pages 418-426 (1969), Yakkyoku vol. 25 pages 1453-1459 (1974) and Experientia vol. 27 pages 146-148 (1971). It is known that this experimental ulcer resembles human peptic ulcers with respect to the overall and histological findings and as to the recovery process. The experimental details confirming the anti-ulcerous effect are as follows.
Donryu-strain male rats having a body weight -- 230-270g (ten rats to a group) were not fed for 24 hours and then were anesthesized with ether. A laparotomy was performed. The stomach was exposed and 0.05 ml of 10% acetic acid was injected into the subserosal layer in the glandular part of the anterior wall to produce the experimental ulcers. The abdomen was then closed. Beginning on the day after the ulceration, the compounds of this invention were orally administered to the rats for 13 days. The rats were fed normally and sacrificed on the 15th day after the ulcer formation. The size of the ulcer (length and width) in the glandular part of the stomach was measured and the product of the length and width was used as the ulcer index (UI). The curative ratio (%) was calculated from the ulcer index of the rats which were medicated as compared with the index of the control group. [formula]
For the purpose of comparing the effects with those of known drugs, the therapeutic effects of the compounds of this invention, tyrosine itself and gefarnate relative to those of glutamine were calculated and are listed in Table I. Of these compounds, gefarnate (geranyl farnesylacetate,U.S. Pat. No. 3,154,570 (1964) and glutamine are known anti-ulcerous drugs.

[3] = tested on: chronic acetic acid ulcers in rats; experiment: Anti-ulcerous effect on chronic acetic acid ulcers in rats (oral, 41st to 54th day after ulceration), Table II; type: in vivo; settings: 14 days, relative to glutamine
Method: Donryu-strain male rats having a body weight -- 230-270g (ten rats to a group) were not fed for 24 hours and then were anesthesized with ether. A laparotomy was performed. The stomach was exposed and 0.05 ml of 10% acetic acid was injected into the subserosal layer in the glandular part of the anterior wall to produce the experimental ulcers. The abdomen was then closed. […] […] The size of the ulcer (length and width) in the glandular part of the stomach was measured and the product of the length and width was used as the ulcer index (UI). The curative ratio (%) was calculated from the ulcer index of the rats which were medicated as compared with the index of the control group. [formula] Acetic acid ulcers in rats are known to undergo partial healing and re-ulceration so that these ulcers resemble human chronic ulcers, both histologically and functionally. In order to examine the anti-ulcerous effects on chronic ulcers, the compounds of this invention were orally administered to rats for 14 days, from the 41st day to the 54th day after ulceration with acetic acid. On the 55th day, the rats were sacrificed and the size of the ulcer was measured. The procedure used in ulceration and in the determination of effects are the same as those described hereinbefore.

SMILES | LD50 [1] [mg/kg] | Relative therapeutic effect ([2]; 200 mg/kg/day) | also measured
COc1ccc(C(=O)N[C@H](CO)Cc2ccc(O)cc2)cc1 | > 4000 | 1.76 | 
COc1ccccc1C(=O)N[C@H](CO)Cc1ccc(O)cc1 |  | 1.29 | 
COc1cc(C(=O)N[C@H](CO)Cc2ccc(O)cc2)cc(OC)c1OC | > 4000 | 1.43 | 
Nc1ccc(C(=O)N[C@H](CO)Cc2ccc(O)cc2)cc1 |  | 1.24 | 
Cc1ccc(COC(=O)N[C@H](CO)Cc2ccc(O)cc2)cc1 | > 4000 | 1.81 | 
O=C(N[C@H](CO)Cc1ccc(O)cc1)OCc1ccc(F)cc1 |  | 1.14 | 
O=C(N[C@H](CO)Cc1ccc(O)cc1)OCc1ccc(Cl)cc1 |  | 0.81 | 
O=C(N[C@H](CO)Cc1ccc(O)cc1)OCC1CCCCC1 |  | 1.60 | 
COc1ccc(C(=O)N[C@@H](Cc2ccccc2)C(=O)N[C@@H](Cc2ccc(O)cc2)C(=O)O)cc1 [Compound (II) R3 =CH3 O, N-(4-methoxybenzoyl)-phenylalanyltyrosine] | > 4000 |  | Relative therapeutic effect ([3]; 50 mg/kg/day): 7.85
O=C(N[C@@H](Cc1ccccc1)C(=O)N[C@@H](Cc1ccc(O)cc1)C(=O)O)c1ccccc1 [Compound (II) R3 =H, N-benzoylphenylalanyltyrosine] (Bz-Phe-Tyr-OH) | > 4000 | 1.19 | 
CC(C)=CCCC(C)=CCCC(C)=CCCC(=O)OC/C=C(\C)CCC=C(C)C [Gefarnate, geranyl farnesylacetate, reference compound] |  | 1.06 | Relative therapeutic effect ([3]; 200 mg/kg/day): 0.77
NC(=O)CC[C@H](N)C(=O)O [Glutamine, glutamine, reference compound] |  | 0.30 | Relative therapeutic effect ([3]; 1000 mg/kg/day): 1.00; Relative therapeutic effect ([2]; 1000 mg/kg/day): 1.00
COC(Cc1ccccc1)C(=O)N[C@H](CO)Cc1ccc(O)cc1 (stereo partly drawn) [N-(α -methoxy-β-phenylpropionyl)-tyrosinol] | > 4000 |  | 
COc1ccc(C[C@@H](CO)NC(=O)OCc2ccc(OC)c(OC)c2)cc1 [O-methyl-N-(3,4-dimethoxybenzyloxycarbonyl)-tyrosinol] | > 4000 | 0.98 | 
COc1ccc(C[C@@H](CO)NC(=O)OCc2ccccc2)cc1 [O-methyl-N-benzyloxycarbonyltyrosinol] | > 4000 | 1.03 | 
N[C@@H](Cc1ccc(O)cc1)C(=O)O [Tyrosine, tyrosine] |  | 0.37 | 
COc1ccc(COC(=O)N[C@H](CO)Cc2ccc(O)cc2)cc1 [drawing 11] | > 4000 | 1.75 | 
COc1ccc(COC(=O)N[C@H](CO)Cc2ccc(O)cc2)cc1 [drawing 17] |  |  | Relative therapeutic effect ([3]; 50 mg/kg/day): 7.72
